Data set [1] is filed under the species Rattus norvegicus. As to the kind of experiment: Compound was tested for the antiinflammatory activity in carrageenan air pouch model of inflammation. The data set is classed as functional.
Data set [2] concerns the target T1, Prostaglandin G/H synthase 2 (Homo sapiens, UniProt P35354).
T1 sequence (P35354 whole entry): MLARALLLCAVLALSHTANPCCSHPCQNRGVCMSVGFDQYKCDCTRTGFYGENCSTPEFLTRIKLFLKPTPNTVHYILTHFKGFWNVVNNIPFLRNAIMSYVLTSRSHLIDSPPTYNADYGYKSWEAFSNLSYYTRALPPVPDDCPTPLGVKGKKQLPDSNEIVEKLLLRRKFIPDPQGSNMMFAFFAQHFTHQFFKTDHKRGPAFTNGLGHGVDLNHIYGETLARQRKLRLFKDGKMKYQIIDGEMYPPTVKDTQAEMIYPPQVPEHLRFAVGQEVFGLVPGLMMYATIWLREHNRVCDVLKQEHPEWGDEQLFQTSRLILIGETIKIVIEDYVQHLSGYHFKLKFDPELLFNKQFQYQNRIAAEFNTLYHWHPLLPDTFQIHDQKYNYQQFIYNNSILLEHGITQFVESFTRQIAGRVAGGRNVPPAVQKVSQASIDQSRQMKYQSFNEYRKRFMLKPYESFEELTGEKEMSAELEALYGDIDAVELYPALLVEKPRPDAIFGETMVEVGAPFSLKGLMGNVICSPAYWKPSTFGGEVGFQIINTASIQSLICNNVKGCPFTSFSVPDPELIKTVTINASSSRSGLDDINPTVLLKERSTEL
Description: Compound was tested for its inhibitory activity against recombinant human Prostaglandin G/H synthase 2

The target in data set [3] is Prostaglandin G/H synthase 1 (Homo sapiens, UniProt P23219). The experiment in a line: Compound was tested for its inhibitory activity against recombinant human Prostaglandin G/H synthase 1.
Chain of Prostaglandin G/H synthase 1 (P23219 whole entry): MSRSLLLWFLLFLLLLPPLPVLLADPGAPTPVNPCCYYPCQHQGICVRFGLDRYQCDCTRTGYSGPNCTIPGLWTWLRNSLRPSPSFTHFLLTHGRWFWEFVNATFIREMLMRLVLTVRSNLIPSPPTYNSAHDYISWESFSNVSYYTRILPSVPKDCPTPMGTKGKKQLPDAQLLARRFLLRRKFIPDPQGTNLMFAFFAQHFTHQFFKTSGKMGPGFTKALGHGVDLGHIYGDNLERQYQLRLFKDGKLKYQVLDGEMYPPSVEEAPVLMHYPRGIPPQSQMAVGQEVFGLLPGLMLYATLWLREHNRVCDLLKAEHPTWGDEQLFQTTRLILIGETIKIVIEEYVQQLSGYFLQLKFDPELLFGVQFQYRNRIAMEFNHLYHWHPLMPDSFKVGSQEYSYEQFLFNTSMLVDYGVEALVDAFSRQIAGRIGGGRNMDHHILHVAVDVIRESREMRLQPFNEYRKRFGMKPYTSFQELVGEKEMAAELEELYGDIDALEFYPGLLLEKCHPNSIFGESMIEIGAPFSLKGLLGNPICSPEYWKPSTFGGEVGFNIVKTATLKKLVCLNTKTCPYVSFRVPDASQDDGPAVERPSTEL
Data set [4] in a line: In vivo mean elimination half life in the male rat by intravenous administration of the compound. In kind it is ADME, organism-based.
The nature of data set [5]: In vivo mean elimination half life in the cynomolgus monkeys by intravenous administration of the compound. In kind it is ADME, organism-based, Macaca fascicularis. The following applies: cynomolgus monkey.
Data set [6] is filed under the species Rattus norvegicus. As to the kind of experiment: Compound was tested for the chronic antiinflammatory activity in rat adjuvant arthritis model. The data set is classed as functional.
The subject of data set [7] is Rattus norvegicus. As to the kind of experiment: Compound was tested for the percentage inhibition at 0.3 mg/kg in carrageenan air pouch assay. The data set is classed as functional.
Data set [8] is described as follows: In vivo mean elimination half life in the female dogs by intravenous administration of the compound. The settings on record: dog. The data set is classed as ADME, organism-based, Canis lupus familiaris.
The test system of data set [9] is Rattus norvegicus. The experiment in a line: Compound was tested for complete blockade of carrageenan induced hyperalgesia within 1 hr after iv administration. The data set is classed as functional.
Data set [10] is filed under the species Rattus norvegicus. As to the kind of experiment: Compound was tested for the antiinflammatory activity in rat adjuvant arthritis model. The data set is classed as functional.

Usually ED50 stands for the dose that gives a 50% effect, or the effect in half of the subjects. Broadly, the IC50 is the concentration that inhibits the measured activity by half. For `CC(=O)[N-]S(=O)(=O)c1ccc(-c2c(-c3ccccc3)noc2C)cc1.[Na+]`, it took a dose of 0.5 mg/kg to reach the 50% effect level in the data set filed under Rattus norvegicus [1] (ED50). Moreover, the IC50 came out at 20 µM in data set [2] and 100 µM in data set [3].

As a reminder, the half-life is the time needed for the level to fall by half in the phase considered. The inhibition in vivo is the relative decrease from the control value, in per cent. As for `CCC(=O)[N-]S(=O)(=O)c1ccc(-c2c(-c3ccccc3)noc2C)cc1.[Na+]` [PARECOXIB SODIUM], the half-life in data set [4] is 8.1 min; in data set [5], 72.6 min; in data set [8], 33.2 min. Besides, the ED50 in the data set listed under Rattus norvegicus [6] was 0.08 mg/kg; with Rattus norvegicus [9] it was 5 mg/kg. The same molecule returned an inhibition in vivo at 0.3 mg/kg with Rattus norvegicus [7] of 98%.

For `Cc1onc(-c2ccccc2)c1-c1ccc(S(N)(=O)=O)cc1` [VALDECOXIB], the ED50 in the data set filed under Rattus norvegicus [10] was determined as 0.08 mg/kg.

Values taken from ChEMBL document CHEMBL1133164, “N-[[(5-methyl-3-phenylisoxazol-4-yl)-phenyl]sulfonyl]propanamide, sodium salt, parecoxib sodium: A potent and selective inhibitor of COX-2 for parenteral administration” (J Med Chem, 2000).
